In this test the test system is Plasmodium berghei. Nature of the test: Luciferase/luciferin-expressing antifolate-resistant parasites were used to infect a culture of HepG2 cells that were pre-incubated with compounds. Infected hepatocytes emit light due to the luciferase reaction. Assay results are presented as the percent inhibition of light emission compared to control. […]. It counts as functional. The following applies: sporozoite; for IC90: read-out: LUCIFERASE INFECTION ASSAY - IC90.

Where [1] appears, read: read-out: LUCIFERASE INFECTION ASSAY - IC50.

Results on 43 compounds are retold here after ChEMBL document CHEMBL4483862, “Open-source discovery of chemical leads for next-generation chemoprotective antimalarials” (2018).

What is called IC50 is the point on the concentration scale where inhibition reaches its midpoint. The IC90 is the concentration at which the effect reaches the 90% level.

`O=C(c1ccccc1)C1(c2nc3ccccc3s2)Sc2ccccc2C1=O` (stereo unspecified): the IC90 is 7.72 µM. The IC50 (HEPG2TOX_HILL_SLOPE 2.24, HEPG2TOX_R_SQUARED 0.913, PBLUC_HILL_SLOPE 6.06, PBLUC_R_SQUARED 0.741, read-out: LUCIFERASE INFECTION ASSAY - IC50) was 5.37 µM.

Take `Cc1cccc(C(=O)Nc2ccccc2C(=O)OCC(=O)c2c[nH]c3ccccc23)c1`: the IC90 was over 10 µM. The IC50 under setting [1] is over 10 µM.

In the case of `Cc1ccc(S(=O)(=O)N2CCCC(C(=O)NNC(=O)CCNC(=O)/C=C/c3ccccc3)C2)cc1` (stereo unspecified), the IC90 is over 10 µM. For the same compound, the IC50 under setting [1] was over 10 µM.

For the compound `O=C(Cn1ncc(Cl)c(Cl)c1=O)NCC(=O)Nc1ccc(F)c(F)c1F`, the IC90 turned out to be 6.18 µM. Further, the IC50 (HEPG2TOX_HILL_SLOPE 18.2, HEPG2TOX_R_SQUARED 0.93, PBLUC_HILL_SLOPE 2.22, PBLUC_R_SQUARED 0.782, read-out: LUCIFERASE INFECTION ASSAY - IC50) came out at 2.3 µM.

In the case of `N#CC(/N=C\c1ccc(Cl)cc1)=C(\C#N)NC(=O)Nc1ccc(OC(F)(F)F)cc1`, the IC90 is 2.75 µM. Moreover, under “HEPG2TOX_HILL_SLOPE 2.54, HEPG2TOX_R_SQUARED 0.983, PBLUC_HILL_SLOPE 13.2, PBLUC_R_SQUARED 0.605, read-out: LUCIFERASE INFECTION ASSAY - IC50”, the IC50 amounted to 2.33 µM.

Turning to `O=C(Nc1nc2ccccc2[nH]1)c1cccnc1Nc1ccccc1F`, the IC90 worked out at 3.81 µM. Moreover, the IC50 (HEPG2TOX_HILL_SLOPE 1.38, HEPG2TOX_R_SQUARED 0.863, PBLUC_HILL_SLOPE 3.37, PBLUC_R_SQUARED 0.741, read-out: LUCIFERASE INFECTION ASSAY - IC50) worked out at 1.98 µM.

Take `CNC(=O)NC(=O)CNc1ccc(C(F)(F)F)cc1`: the IC90 was over 10 µM. Under setting [1], the IC50 is over 10 µM.

As for `O=[N+]([O-])c1cnc(Sc2nnc(-c3ccccc3)[nH]2)s1`, the IC90 was over 10.8 µM. Also, the IC50 under setting [1] is over 10.8 µM.

In the case of `Cc1ccc(C(C)CCN2CCc3c(c(C(=O)NCc4nccs4)nn3CC3CC3)C2)o1` (stereo unspecified), the IC90 was over 7.28 µM. The IC50 under setting [1] was over 7.28 µM.

Regarding `Fc1ccc(-c2cnn3c(NCc4cccs4)ccnc23)cc1Cl`, the IC90 turned out to be 7.94 µM. For the same compound, the IC50 (PBLUC_HILL_SLOPE 0.723, PBLUC_R_SQUARED 0.681, read-out: LUCIFERASE INFECTION ASSAY - IC50) worked out at 0.38 µM.

For `OCCCNc1ccc2ncc(-c3cccc(C(F)(F)F)c3)n2n1`, the IC90 came out at 1.21 µM. In addition, the IC50 (HEPG2TOX_HILL_SLOPE 0.946, HEPG2TOX_R_SQUARED 0.925, PBLUC_HILL_SLOPE 15.6, PBLUC_R_SQUARED 0.717, read-out: LUCIFERASE INFECTION ASSAY - IC50) turned out to be 1.05 µM.

For `COc1ccc(-n2c(C)cc(C(=O)COC(=O)[C@@H](NS(=O)(=O)c3ccc4c(c3)OCCO4)C(C)C)c2C)cc1`, the IC90 was over 10 µM. Moreover, the IC50 under setting [1] is over 10 µM.

Regarding `COc1ccc(C(=O)Nc2ccc(Oc3cc(C(F)(F)F)cc(C(F)(F)F)c3)cc2)cc1`, the IC90 was determined as 2.35 µM. For the same compound, the IC50 under setting [1] worked out at 0.486 µM.

For `C=C(C)c1ccccc(=O)c1O`, the 90% effect concentration (IC90) is over 20.3 µM. For the same compound, the IC50 under setting [1] was over 20.3 µM.

For the compound `Cc1c(Cl)cn2c(=O)cc(CN3CCN(c4ccccc4)CC3)nc2c1Cl`, the IC90 was over 10 µM. Moreover, the IC50 under setting [1] was over 10 µM.

Consider `Cc1cc(C)cc(NC(=O)CNCCCn2ccc3ccccc32)c1`, for which the IC90 is over 10 µM. Also, under setting [1], the IC50 is over 10 µM.

For `CC1(C)N=C(N)N=C(N)N1c1ccc([N+](=O)[O-])cc1`, the IC90 is over 10 µM. For the same compound, the IC50 under setting [1] was over 10 µM.

In the case of `CN(C)CCNC(=O)c1ccc(-c2cn3c(-c4ccsc4)cnc3cn2)cc1`, the IC90 was over 8.43 µM. Also, under setting [1], the IC50 was over 8.43 µM.

As for `CCCNC(=O)COC(=O)c1cc(Br)ccc1N`, the IC90 is over 10 µM. The IC50 under setting [1] was over 10 µM.

As for `COc1ccc(Br)cc1/C=C/c1ccc2c([N+](=O)[O-])cccc2n1`, the IC90 is over 10 µM. In addition, the IC50 under setting [1] was over 10 µM.

In the case of `CCOc1cc(CNCc2nc3ccccc3[nH]2)ccc1OCc1cccs1`, the IC90 was over 10 µM. The IC50 (HEPG2TOX_HILL_SLOPE 15, HEPG2TOX_R_SQUARED 0.655, PBLUC_HILL_SLOPE 1.7, PBLUC_R_SQUARED 0.452, read-out: LUCIFERASE INFECTION ASSAY - IC50) worked out at 4.17 µM.

For `COc1ccccc1-c1cc(C(=O)Nc2ccc(N3CCCC3)cc2)no1`, the IC90 was over 10 µM. Further, under setting [1], the IC50 is over 10 µM.

With `O=C(CCn1cnc([N+](=O)[O-])c1)Nc1nc(-c2ccccc2)c(-c2ccccc2)s1`, the IC90 amounted to 7.85 µM. Further, the concentration for half-maximal inhibition (IC50) (FFLUC_HILL_SLOPE 11.3, FFLUC_R_SQUARED 0.217, PBLUC_HILL_SLOPE 4.55, PBLUC_R_SQUARED 0.65, read-out: LUCIFERASE INFECTION ASSAY - IC50) is 4.84 µM.

On to `COc1ccc(CCN(C)CC(O)COc2ccc(C(C)(C)CC(C)(C)C)cc2)cc1OC` (stereo unspecified), for which the concentration for an effect of 90% (IC90) is over 10 µM. Moreover, the half-maximal inhibitory concentration (IC50) (PBLUC_HILL_SLOPE 3.04, PBLUC_R_SQUARED 0.101, read-out: LUCIFERASE INFECTION ASSAY - IC50) turned out to be 9.63 µM.

For the compound `COc1cc(C(=O)N/N=C(\Cc2ncc[nH]2)c2ccccc2)cc(OC)c1OC`, the IC90 is over 10 µM. For the setting “HEPG2TOX_HILL_SLOPE 12.3, 3.85, HEPG2TOX_R_SQUARED 0.0839, 0.975, PBLUC_HILL_SLOPE 2.96, PBLUC_R_SQUARED 0.327, read-out: LUCIFERASE INFECTION ASSAY - IC50”, the concentration for half-maximal inhibition (IC50) was 5.09 µM.

Take `Cc1nc(N2CCN(C(=O)C(C)C)CC2)c2c3c(sc2n1)CC(C)CC3` (stereo unspecified): the 90% effect concentration (IC90) was over 10 µM. Also, for the setting “PBLUC_HILL_SLOPE 12.1, PBLUC_R_SQUARED 0.479, read-out: LUCIFERASE INFECTION ASSAY - IC50”, the IC50 was 9.05 µM.

As for `CCCCCCCCCCCc1nnc(SCc2ccccc2)n1-c1ccccc1C(F)(F)F`, the 90% effect concentration (IC90) is over 6.74 µM. Moreover, the IC50 (FFLUC_HILL_SLOPE 1.21, FFLUC_R_SQUARED 0.637, read-out: LUCIFERASE INFECTION ASSAY - IC50) is over 6.74 µM.

As to `COc1ccc(Cl)cc1NC(=O)CN(C)C(=O)c1cc(-c2ccccc2)nc2c1cnn2C(C)C`, the IC90 was over 10 µM. In addition, under setting [1], the IC50 was over 10 µM.

Consider `CCCCc1ccc(CC(=O)NCc2ccc(Cn3cccn3)cc2)cc1`, for which the IC90 worked out at 8.98 µM. Besides, the IC50 (HEPG2TOX_HILL_SLOPE 7.71, 2.15, HEPG2TOX_R_SQUARED 0.735, 0.901, PBLUC_HILL_SLOPE 15.3, 3.44, PBLUC_R_SQUARED 0.0878, 0.809, read-out: LUCIFERASE INFECTION ASSAY - IC50) came out at 7.36 µM.

Consider `O=C(Nc1ccc(F)c(Cl)c1)c1[nH]nc2ccccc12`, for which the IC90 was over 10 µM. For the setting “FFLUC_HILL_SLOPE 1.67, FFLUC_R_SQUARED 0.554, PBLUC_HILL_SLOPE 0.29, PBLUC_R_SQUARED 0.519, read-out: LUCIFERASE INFECTION ASSAY - IC50”, the IC50 is 0.104 µM.

With `Cc1ccc(-n2nnnc2SCc2nc(-c3ccc(C)c(F)c3)no2)c(C)c1`, the IC90 is over 10 µM. The IC50 under setting [1] is over 10 µM.

As for `O=[N+]([O-])c1ccc(S(=O)(=O)c2ccc(C(F)(F)F)cn2)nc1`, the IC90 was 6.39 µM. For the same compound, the IC50 (FFLUC_HILL_SLOPE 150, FFLUC_R_SQUARED 0.542, HEPG2TOX_HILL_SLOPE 3, HEPG2TOX_R_SQUARED 0.956, PBLUC_HILL_SLOPE 6.23, PBLUC_R_SQUARED 0.341, read-out: LUCIFERASE INFECTION ASSAY - IC50) is 4.49 µM.

As for `COc1ccc(NC(=O)c2cccc(C3(CNc4ccccc4)CC3)c2)cn1`, the IC90 is over 10 µM. Moreover, the IC50 under setting [1] was over 10 µM.

Consider `CC(C)c1ccc2c(c1)/C(=N/NC(=O)c1ccccc1F)C(=O)N2`, for which the IC90 was determined as 0.084 µM. Besides, the IC50 (PBLUC_HILL_SLOPE 280, PBLUC_R_SQUARED 0.522, read-out: LUCIFERASE INFECTION ASSAY - IC50) is 0.0833 µM.

Turning to `CN(CC(=O)Nc1ccc(Cl)c(S(=O)(=O)N2CCCCC2)c1)C1CCc2ccccc21` (stereo unspecified), the IC90 was over 10 µM. In addition, the IC50 (PBLUC_HILL_SLOPE 13.6, PBLUC_R_SQUARED 0.21, read-out: LUCIFERASE INFECTION ASSAY - IC50) worked out at 9.96 µM.

For `Cc1nc(COc2ccc(C(=O)Nc3nc(-c4ccccn4)cs3)cc2)no1`, the IC90 stood at 3.46 µM. For the same compound, the half-maximal inhibitory concentration (IC50) (HEPG2TOX_HILL_SLOPE 10.4, HEPG2TOX_R_SQUARED 0.524, PBLUC_HILL_SLOPE 14, PBLUC_R_SQUARED 0.305, read-out: LUCIFERASE INFECTION ASSAY - IC50) is 2.96 µM.

As for `CC(C)CC(N)c1csc(NC(=O)Nc2ccc(OC(F)(F)F)cc2)n1` (stereo unspecified), the IC90 was 5.1 µM. For the same compound, the half-inhibitory concentration (IC50) (PBLUC_HILL_SLOPE 53.9, PBLUC_R_SQUARED 0.0664, read-out: LUCIFERASE INFECTION ASSAY - IC50) was 4.89 µM.

Consider `Cc1nc(-c2ccccc2)sc1C(=O)OC(C)C(=O)N1CCNC1=O` (stereo unspecified), for which the IC90 is over 10 µM. The IC50 under setting [1] is over 10 µM.

Consider `COC(=O)c1ccc2c(=O)n(-c3ccccc3)c(SC3CCCCC3=O)nc2c1` (stereo unspecified), for which the IC90 was over 10 µM. For the same compound, the IC50 under setting [1] was over 10 µM.

Regarding `CN(C)C(=O)c1ccc(-c2ccnc3n[nH]c(-c4cccc(Cl)c4)c23)cc1`, the IC90 is over 10 µM. Under setting [1], the IC50 amounted to 4.64 µM.

Consider `COc1ccccc1CNc1cccc2cnccc12`, for which the IC90 is over 10 µM. The IC50 under setting [1] is over 10 µM.

For `Cc1ccc2nc(NC(=O)c3ccc(Cl)cc3Cl)c(C(=O)NC3CCCC3)n2c1`, the IC90 turned out to be 1.13 µM. The half-maximal inhibitory concentration (IC50) (FFLUC_HILL_SLOPE 11.5, FFLUC_R_SQUARED 0.0941, HEPG2TOX_HILL_SLOPE 0.896, HEPG2TOX_R_SQUARED 0.951, PBLUC_HILL_SLOPE 3.11, PBLUC_R_SQUARED 0.82, read-out: LUCIFERASE INFECTION ASSAY - IC50) came to 0.559 µM.

For the compound `FC(F)(F)c1ccccc1NC(=S)N1CCCN(c2nc3ccc(Cl)cc3s2)CC1`, the IC90 worked out at 2.54 µM. Under setting [1], the IC50 was determined as 2.32 µM.
